Measured values taken from the CheMixHub ionic liquid set.

Test: xn = mol fraction of the nth substance listed

CC[N+](CC)(CC)CC.[Cl-] + CC1(C)CC(O)CC(C)(C)N1[O] + O
Conditions	electrical conductivity [S/m]
323.15 K, 100 kPa, frequency 0.001 MHz, x2 = 0, x1 = 0.2	4.1

CCCn1cc[n+](C)c1.[Br-] + CC1COC(=O)O1
298 K, 101 kPa
Conditions	electrical conductivity [S/m]
x2 = 0.1	0.04
x2 = 0.64	0.5
x2 = 0.67	0.52
x2 = 0.72	0.58

CC[n+]1ccn(C)c1C.O=S(=O)([N-]S(=O)(=O)C(F)(F)F)C(F)(F)F + CC1COC(=O)O1
101.3 kPa
Conditions	viscosity [mPa·s]
303.15 K, x1 = 0.203	5.35
303.15 K, x1 = 0.5825	20.07
313.15 K, x1 = 0.7004	19.96
318.15 K, x1 = 0.3994	7.33
318.15 K, x1 = 0.5149	10.82
318.15 K, x1 = 0.8032	21.86
323.15 K, x1 = 0.1025	2.411
323.15 K, x1 = 0.5149	9.41
323.15 K, x1 = 0.7004	15.48
328.15 K, x1 = 0.203	3.199
328.15 K, x1 = 0.8032	16.86
333.15 K, x1 = 0.3994	5.29
338.15 K, x1 = 0.3078	3.726
343.15 K, x1 = 0.3994	4.376
343.15 K, x1 = 0.5825	6.93
343.15 K, x1 = 0.8903	13.67
348.15 K, x1 = 0.1025	1.651
348.15 K, x1 = 0.7004	8.13

CCCCc1n(S(=O)(=O)O)cc[n+]1S(=O)(=O)O.O=C([O-])C(F)(F)F + CC#N
101 kPa
Conditions	electrical conductivity [S/m]
278.15 K, x1 = 0.02551	1.24
283.15 K, x1 = 0.02551	1.19
288.15 K, x1 = 0.02551	1.07
293.15 K, x1 = 0.02551	0.944
298.15 K, x1 = 0.0052	0.359
298.15 K, x1 = 0.0104	0.425
298.15 K, x1 = 0.0155	0.554
298.15 K, x1 = 0.0205	0.632
298.15 K, x1 = 0.0255	0.899
298.15 K, x1 = 0.02551	0.899
303.15 K, x1 = 0.02551	0.665
308.15 K, x1 = 0.02551	0.646
313.15 K, x1 = 0.02551	0.545
318.15 K, x1 = 0.02551	0.521
323.15 K, x1 = 0.02551	0.468
328.15 K, x1 = 0.02551	0.457
333.15 K, x1 = 0.02551	0.423

CC[N+](CC)(CC)CC.[Cl-] + CC(=O)CCC(=O)O
101.3 kPa, x1 = 0.3333
Conditions	viscosity [mPa·s]
298.15 K	140
308.15 K	83.8
318.15 K	52.7
328.15 K	33
338.15 K	20.23

C[N+](C)(CCO)Cc1ccccc1.[Cl-] + CC(=O)CCC(=O)O
101.33 kPa, x1 = 0.3333
Conditions	viscosity [mPa·s]
293.15 K	2026
298.15 K	1235
303.15 K	785
308.15 K	518
313.15 K	353
318.15 K	248
323.15 K	179
328.15 K	133
333.15 K	101
338.15 K	78
343.15 K	61
348.15 K	49
353.15 K	40

CCCn1cc[n+](C)c1.[Br-] + CC(=O)N(C)C
298.15 K, 101 kPa
Conditions	viscosity [mPa·s]
x1 = 0.01714	1.124
x2 = 0.9358	1.653
x2 = 0.9583	1.383

CCCC[n+]1ccn(C)c1.N#C[N-]C#N + CC(=O)[O-].[K+] + O
viscosity [mPa·s], 101 kPa
Conditions	298.15 K	308.15 K	318.15 K	323.15 K
x2 = 0.1831, x3 = 0.8019	8.2	6	–	–
x2 = 0.1943, x3 = 0.7933	10	7.2	5.4	4.815

CC(=O)[O-].CC[n+]1ccn(C)c1 + CC(=O)[O-].[NH4+]
323.15 K, 101 kPa, x2 = 0
Conditions	electrical conductivity [S/m]	viscosity [mPa·s]
–	0.918	35.7

CCCN + CC(C)(C)O + CCCCCC[n+]1ccn(C)c1.F[B-](F)(F)F
298.15 K, 101 kPa
Conditions	viscosity [mPa·s]
x2 = 0.0474, x1 = 0.3489	46.28
x2 = 0.0483, x1 = 0.4517	28.58
x2 = 0.05, x1 = 0.0708	120.9
x2 = 0.05, x1 = 0.8998	0.723
x2 = 0.0508, x1 = 0.2562	66.1
x2 = 0.0508, x1 = 0.8482	1.318
x2 = 0.0525, x1 = 0.7484	3.959
x2 = 0.0529, x1 = 0.6504	8.74
x2 = 0.055, x1 = 0.5488	16.3
x2 = 0.0572, x1 = 0.1668	88.1
x2 = 0.1042, x1 = 0.1719	73.7
x2 = 0.1487, x1 = 0.0497	96.6
x2 = 0.1555, x1 = 0.1488	66.7
x2 = 0.247, x1 = 0.0423	72.1
x2 = 0.251, x1 = 0.3468	15.17
x2 = 0.3138, x1 = 0.0592	53
x2 = 0.3494, x1 = 0.5505	1.808
x2 = 0.3508, x1 = 0.5993	1.244
x2 = 0.3529, x1 = 0.349	7.072
x2 = 0.3545, x1 = 0.4468	2.923
x2 = 0.3596, x1 = 0.0184	53.2
x2 = 0.4492, x1 = 0.1454	18.61
x2 = 0.4496, x1 = 0.0492	32.35
x2 = 0.6483, x1 = 0.1509	7.984
x2 = 0.6496, x1 = 0.2508	4.06
x2 = 0.6511, x1 = 0.299	2.994
x2 = 0.6551, x1 = 0.0445	15.43
x2 = 0.7929, x1 = 0.1032	7.67
x2 = 0.8001, x1 = 0.15	5.198
x2 = 0.8965, x1 = 0.0518	7.226

CC[N+](CC)(CC)CC.[Cl-] + CCCCCCCCCC(=O)O
100 kPa, x1 = 0.333
Conditions	electrical conductivity [S/m]	viscosity [mPa·s]
293.15 K	0.0223	275
303.15 K	0.0338	185
313.15 K	0.0498	128
323.15 K	0.0718	90
333.15 K	0.101	64.9
